In US11440923B2, “Substituted macrocyclic indole derivatives” (Bayer Aktiengesellschaft, priority 2017, dated 2022):
Where a name gives a salt, the structure may show the parent alone. Read-outs that look alike come from different tables or passages of the source.

Experiments:
SUDHL10 cells = test: Induction of caspase-3/7 activity in SUDHL10 cells (Assay 4); format: cell-based
Summary of the method: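 Read-out: Caspase-Glo 3/7 luminescence (1 h, 37 °C) after cells, plated overnight, were treated with compounds for 3 h at 37 °C. Signal corrected for cell-free medium background and expressed relative to DMSO control mean.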

SUDHL5 cells = test: Antiproliferation assay SUDHL5 (Assay 7); format: cell-based
Summary of the method: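 Growth inhibition is determined from ATP luminescence (CellTiter-Glo) following 72 h incubation with compound. Time-zero cells are measured the same way for baseline, and IC50s are referenced to DMSO controls.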

[1] = read-out: Caspase SUDHL10 EC50 (median), caspase-3/7 induction, 3 h
[2] = Homo sapiens, SU-DHL-5, 72 h, read-out: Antiproli SUDHL5 IC50 (median), 72 h, CellTiter-Glo
[3] = read-out: Antiproli SUDHL5 IC50 (median), 72 h, CellTiter-Glo
[4] = Homo sapiens, SU-DHL10, 3 h, read-out: Caspase SUDHL10 EC50 (median), caspase-3/7 induction, 3 h

`CCc1c2c(nn1C)C(CCOC)OCCCCn1c(C(=O)O)c(CCCOc3cccc4cc(F)ccc34)c3ccc(Cl)c-2c31` (single isomer, unassigned; enantiomer 1) [Example 42, (+)-4-chloro-3-ethyl-7-{3-[(6-fluoronaphthalen-1-yl)oxy]propyl}-15-(2-methoxyethyl)-2-methyl-2,10,11,12,13,15-hexahydropyrazolo[4′,3′:9,10][1,6]oxazacycloundecino[8,7,6-hi]indole-8-carboxylic Acid—N-ethylethanamine Salt (Enantiomer 1)] gave an EC50 (SUDHL10 cells; [1]) of 52 nM and an IC50 (SUDHL5 cells; [2]) of 52 nM.
`CCc1c2c(nn1C)C(CCN1CCC(F)(F)C1)OCCCCn1c(C(=O)O)c(CCCOc3cccc4cc(F)ccc34)c3ccc(Cl)c-2c31` (single isomer, unassigned; enantiomer 2) [Example 57, 4-chloro-15-[2-(3,3-difluoropyrrolidin-1-yl)ethyl]-3-ethyl-7-{3-[(6-fluoronaphthalen-1-yl)oxy]propyl}-2-methyl-2,10,11,12,13,15-hexahydropyrazolo[4′,3′:9,10][1,6]oxazacycloundecino[8,7,6-hi]indole-8-carboxylic Acid N-ethylethanamine Salt (Enantiomer 2)] was tested, and the EC50 (SUDHL10 cells; [1]) was 7700 nM and the IC50 (SUDHL5 cells; [3]) was 8700 nM.
For `CCC1OCCCCn2c(C(=O)O)c(CCCOc3cccc4ccccc34)c3ccc(Cl)c(c32)-c2c1nn(C)c2C` (single isomer, unassigned; enantiomer 2) [Example 30, (−)-4-chloro-15-ethyl-2,3-dimethyl-7-{3-[(naphthalen-1-yl)oxy]propyl}-2,10,11,12,13,15-hexahydropyrazolo[4′,3′:9,10][1,6]oxazacycloundecino[8,7,6-hi]indole-8-carboxylic Acid—N-ethylethanamine Salt (Enantiomer 2)], the EC50 (SUDHL10 cells; [1]) was > 33000 nM.
`CCc1c2c(nn1C)C(CCC1CCOCC1)OCCCCn1c(C(=O)O)c(CCCOc3cccc4cc(F)ccc34)c3ccc(Cl)c-2c31` (single isomer, unassigned; enantiomer 1) [Example 63, (+)-4-chloro-3-ethyl-7-{3-[(6-fluoronaphthalen-1-yl)oxy]propyl}-2-methyl-15-[2-(oxan-4-yl)ethyl]-2,10,11,12,13,15-hexahydropyrazolo[4′,3′:9,10][1,6]oxazacycloundecino[8,7,6-hi]indole-8-carboxylic Acid—N-ethylethanamine Salt (Enantiomer 1)] was tested, and the EC50 (SUDHL10 cells; [1]) was 53 nM and the IC50 (SUDHL5 cells; [3]) was 42 nM.
With `CCc1c2c(nn1C)C(CC(C)(C)O)OCCCCn1c(C(=O)O)c(CCCOc3cccc4cc(F)ccc34)c3ccc(Cl)c-2c31` (single isomer, unassigned; enantiomer 1) [Example 53, (+)-4-chloro-3-ethyl-7-{3-[(6-fluoronaphthalen-1-yl)oxy]propyl}-15-(2-hydroxy-2-methylpropyl)-2-methyl-2,10,11,12,13,15-hexahydropyrazolo[4′,3′:9,10][1,6]oxazacycloundecino[8,7,6-hi]indole-8-carboxylic Acid—N-ethylethanamine Salt (Enantiomer 1)] the EC50 (SUDHL10 cells; [1]) was 160 nM and the IC50 (SUDHL5 cells; [3]) was 99 nM.
In the case of `CCc1c2c(nn1C)C(CCN1CCN(C)CC1)OCCCCn1c(C(=O)O)c(CCCOc3cccc4cc(F)ccc34)c3ccc(Cl)c-2c31` (racemic) [Example 71, (rac)-4-chloro-3-ethyl-7-{3-[(6-fluoronaphthalen-1-yl)oxy]propyl}-2-methyl-(15-rac)-[2-(4-methylpiperazin-1-yl)ethyl]-2,10,11,12,13,15-hexahydropyrazolo[4′,3′:9,10][1,6]oxazacycloundecino[8,7,6-hi]indole-8-carboxylic Acid—N-ethylethanamine Salt (Mixture 2 Od Stereoisomers)], the EC50 (SUDHL10 cells; [1]) is reported as 41 nM.
`CCc1c2c(nn1C)C(C(F)(F)F)OCCCCn1c(C(=O)O)c(CCCOc3cccc4ccccc34)c3ccc(Cl)c-2c31` (single isomer, unassigned; enantiomer 1) [Example 33, (+)-4-chloro-3-ethyl-2-methyl-7-{3-[(naphthalen-1-yl)oxy]propyl}-15-(trifluoromethyl)-2,10,11,12,13,15-hexahydropyrazolo[4′,3′:9,10][1,6]oxazacycloundecino[8,7,6-hi]indole-8-carboxylic Acid—N-ethylethanamine Salt (Enantiomer 1)] gave an EC50 (SUDHL10 cells; [1]) of 4500 nM.
Compound `Cc1c2c(nn1C)C(CCN1CCOCC1)OCCCCn1c(C(=O)O)c(CCCOc3cccc4cc(F)ccc34)c3ccc(F)c-2c31` (single isomer, unassigned; enantiomer 1) [Example 20, 4-fluoro-7-{3-[(6-fluoronaphthalen-1-yl)oxy]propyl}-2,3-dimethyl-15-[2-(morpholin-4-yl)ethyl]-2,10,11,12,13,15-hexahydropyrazolo[4′,3′:9,10][1,6]oxazacycloundecino[8,7,6-hi]indole-8-carboxylic Acid—N-ethylethanamine (Enantiomer 1)] has an EC50 (SUDHL10 cells; [4]) of 32 nM and an IC50 (SUDHL5 cells; [2]) of 20 nM.
With `CCc1c2c(nn1C)C(CCN1CCC(F)(F)C1)OCCCCn1c(C(=O)O)c(CCCOc3cccc4cc(F)ccc34)c3ccc(Cl)c-2c31` (single isomer, unassigned; enantiomer 1) [Example 56, 4-chloro-15-[2-(3,3-difluoropyrrolidin-1-yl)ethyl]-3-ethyl-7-{3-[(6-fluoronaphthalen-1-yl)oxy]propyl}-2-methyl-2,10,11,12,13,15-hexahydropyrazolo[4′,3′:9,10][1,6]oxazacycloundecino[8,7,6-hi]indole-8-carboxylic Acid—N-ethylethanamine Salt (Enantiomer 1)] the EC50 (SUDHL10 cells; [1]) was 20 nM and the IC50 (SUDHL5 cells; [3]) was 87 nM.
Compound `CCc1c2c(nn1C)C(C1CC1)OCCCCn1c(C(=O)O)c(CCCOc3cccc4cc(F)ccc34)c3ccc(Cl)c-2c31` (single isomer, unassigned; enantiomer 1) [Example 39, (+)-4-chloro-15-cyclopropyl-3-ethyl-7-{3-[(6-fluoronaphthalen-1-yl)oxy]propyl}-2-methyl-2,10,11,12,13,15-hexahydropyrazolo[4′,3′:9,10][1,6]oxazacycloundecino[8,7,6-hi]indole-8-carboxylic Acid—N-ethylethanamine Salt (Enantiomer 1)] has an EC50 (SUDHL10 cells; [1]) of 1500 nM and an IC50 (SUDHL5 cells; [2]) of 880 nM.
`CCc1c2c(nn1C)C(CCN1CCN(C)CC1)OCCCCn1c(C(=O)O)c(CCCOc3cccc4cc(F)ccc34)c3ccc(Cl)c-2c31` (racemic) [Example 68, 4-chloro-3-ethyl-7-{3-[(6-fluoronaphthalen-1-yl)oxy]propyl}-2-methyl-(15-rac)-[2-(4-methylpiperazin-1-yl)ethyl]-2,10,11,12,13,15-hexahydropyrazolo[4′,3′:9,10][1,6]oxazacycloundecino[8,7,6-hi]indole-8-carboxylic Acid—N-ethylethanamine Salt (Mixture 1 of Stereoisomers)] was tested, and the EC50 (SUDHL10 cells; [1]) was 82 nM.
`Cc1c2c(nn1C)C(C1CC1)OCCCCn1c(C(=O)O)c(CCCOc3cccc4ccccc34)c3ccc(Cl)c-2c31` (single isomer, unassigned; enantiomer 1) [Example 35, (+)-4-chloro-15-cyclopropyl-2,3-dimethyl-7-{3-[(naphthalen-1-yl)oxy]propyl}-2,10,11,12,13,15-hexahydropyrazolo[4′,3′:9,10][1,6]oxazacycloundecino[8,7,6-hi]indole-8-carboxylic Acid N-ethylethanamine Salt (Enantiomer 1)] showed an EC50 (SUDHL10 cells; [1]) of 5900 nM and an IC50 (SUDHL5 cells; [2]) of 2700 nM.
With `Cc1c2c(nn1C)C(CCN1CCOCC1)OCCCCn1c(C(=O)O)c(CCCOc3cccc4cc(F)ccc34)c3ccc(Cl)c-2c31` (single isomer, unassigned; enantiomer 1) [Example 17, 4-chloro-7-{3-[(6-fluoronaphthalen-1-yl)oxy]propyl}-2,3-dimethyl-15-[2-(morpholin-4-yl)ethyl]-2,10,11,12,13,15-hexahydropyrazolo[4′,3′:9,10][1,6]oxazacycloundecino[8,7,6-hi]indole-8-carboxylic Acid—N-ethylethanamine (Enantiomer 1)] the EC50 (SUDHL10 cells; [4]) was 9.7 nM.
With `Cc1c2c(nn1C)C(C1CC1)OCCCCn1c(C(=O)O)c(CCCOc3cccc4ccccc34)c3ccc(Cl)c-2c31` (single isomer, unassigned; enantiomer 2) [Example 36, (−)-4-chloro-15-cyclopropyl-2,3-dimethyl-7-{3-[(naphthalen-1-yl)oxy]propyl}-2,10,11,12,13,15-hexahydropyrazolo[4′,3′:9,10][1,6]oxazacycloundecino[8,7,6-hi]indole-8-carboxylic Acid N-ethylethanamine Salt (Enantiomer 2)] the EC50 (SUDHL10 cells; [1]) was 27000 nM.
Compound `CCC1OCCCCn2c(C(=O)O)c(CCCOc3cccc4ccccc34)c3ccc(Cl)c(c32)-c2c1nn(C)c2C` (single isomer, unassigned; enantiomer 1) [Example 29, (+)-4-chloro-15-ethyl-2,3-dimethyl-7-{3-[(naphthalen-1-yl)oxy]propyl}-2,10,11,12,13,15-hexahydropyrazolo[4′,3′:9,10][1,6]oxazacycloundecino[8,7,6-hi]indole-8-carboxylic Acid—N-ethylethanamine Salt (Enantiomer 1)] has an EC50 (SUDHL10 cells; [1]) of 3700 nM.
Compound `CCc1c2c(nn1C)C(CCOC)OCCCCn1c(C(=O)O)c(CCCOc3cccc4cc(F)ccc34)c3ccc(Cl)c-2c31` (single isomer, unassigned; enantiomer 2) [Example 43, (−)-4-chloro-3-ethyl-7-{3-[(6-fluoronaphthalen-1-yl)oxy]propyl}-15-(2-methoxyethyl)-2-methyl-2,10,11,12,13,15-hexahydropyrazolo[4′,3′:9,10][1,6]oxazacycloundecino[8,7,6-hi]indole-8-carboxylic Acid—N-ethylethanamine Salt (Enantiomer 2)] has an EC50 (SUDHL10 cells; [1]) of 24000 nM.
